# Assay results reported in ChEMBL document CHEMBL1145143, “5'-Homoaristeromycin. Synthesis and antiviral activity against orthopox viruses” (Bioorg Med Chem Lett, 2005).
# Key:
# [1] = test system: Vaccinia virus; assay: Concentration required for 50% inhibition of adohcy hydrolase by the compound against vaccinia virus in vero 76 cells; type: functional, organism-based; settings: Orthopoxvirus vaccinia
# [2] = Concentration required for 50% inhibition of adohcy hydrolase by the compound against monkeypox virus in vero 76 cells; type: functional, cell-based
# [3] = test system: Cowpox virus; assay: Concentration required for 50% inhibition of adohcy hydrolase by the compound against cowpox virus in vero 76 cells; type: functional, organism-based
# [4] = Cytotoxic concentration against cowpox, monkeypox and vaccinia virus in vero 76 cells; type: functional; settings: Orthopoxvirus vaccinia
structure (smiles),measurement,setting,value
Nc1ncnc2c1ncn2[C@@H]1C[C@H](CCO)[C@@H](O)[C@H]1O,IC50,[1],1.2 µg/mL
same,IC50,[2],0.12 µg/mL
same,IC50,[3],0.12 µg/mL
same,CC50,[4],> 100 µg/mL
